# Measured values taken from US6774145B1, “Material separated from Ecklonia cava, method for extracting and purifying the same, and use thereof as antioxidants” (Ventree Co., Ltd, priority 2000, dated 2004).
# Experiments:
# [1] = DPPH radical scavenging activity (Blois method); format: biochemical; details: reacted 10 min, absorbance at 517 nm
# Method: (§1) The antioxidative activity of the novel compound obtained through the extraction and purification process is evaluated by measuring its radical scavenging activity against 1,1-diphenyl-2-picrylhydrazyl (DPPH), which has free radicals attached thereto, according to the Blois method. A thermal stability of the compound of interest can be evaluated by measuring its antioxidative activity at plural temperature points.
# (§2) Dicaval A and Dicaval B obtained in Example 3 were measured for antioxidative activity according to the Blois method. For this, an examination was made of the radical scavenging activity of the two compounds against 1,1-diphenyl-2-picrylhydrazyl (DPPH) to which free radicals were attached. First, 20 mg of DPPH was dissolved in 150 ml of ethanol to prepare a DPPH solution. To 600 μl of the DPPH solution was added with 250 μl of dimethylsulfoxide (DMSO), diluted with an appropriate amount of ethanol and shaken for 10 seconds, after which this control was adjusted, in absorbance at 517 nm, from 0.94 to 0.97. To 1 ml of the DPPH solution which was adjusted from 0.94 to 0.97 likewise, each of the samples (μg to mg) was added and then, reacted for 10 min, followed by measuring the absorbance of the solution. The antioxidative activity of each of the samples was determined by the DPPH radical scavenging activity which was represented by a reduced absorbance compared with that of the control.
# The antioxidative activity was compared between the conventional antioxidants and the compounds of the invention and the results are given in Table 1, below.
# [2] = Thermal stability: antioxidative activity after heating for 1 hour; format: physicochemical
# Method: as §1, §2
# 50 μg of each of Dicaval A and Dicaval B obtained in Example 3 was heated at 40° C., 60° C., 80° C., and 100° C. for 1 hour to measure antioxidative activity.
# [3] = 50 μg heated at 40° C. for 1 hour
# [4] = 50 μg heated at 60° C. for 1 hour
# [5] = 50 μg heated at 80° C. for 1 hour
# [6] = 50 μg heated at 100° C. for 1 hour
"Thermal stability (Notes) [2, 3]","Thermal stability (Notes) [2, 4]","Thermal stability (Notes) [2, 5]","Thermal stability (Notes) [2, 6]",Structure (SMILES),antioxidative activity (DPPH radical scavenging activity) ([1]; sample amount 10 μg),antioxidative activity (DPPH radical scavenging activity) ([1]; sample amount 20 μg),antioxidative activity (DPPH radical scavenging activity) ([1]; sample amount 100 μg),"Antioxidativity (Absorb. change) [2, 3]","Antioxidativity (Absorb. change) [2, 4]","Antioxidativity (Absorb. change) [2, 5]","Antioxidativity (Absorb. change) [2, 6]"
,,,,"O=C1O[C@H]([C@@H](O)CO)C(O)=C1O [Ascorbic acid, reference compound]",100%,100%,100%,,,,
Stable,Stable,Stable,Stable,Oc1cc(O)c(Oc2c(O)cc(Oc3cc4oc5c(O)c(Oc6cc(O)c(Oc7c(O)cc(O)cc7O)c(O)c6)c(O)cc5c4cc3O)cc2O)c(O)c1 [Dicaval A],100%,100%,100%,0.87,0.89,0.88,0.90
Stable,Stable,Stable,Stable,Oc1cc(O)c(Oc2c(O)cc(Oc3c(O)cc4c(oc5c(O)c(Oc6cc(O)c(Oc7c(O)cc(O)cc7O)c(O)c6)c(O)cc54)c3O)cc2O)c(O)c1 [Dicaval B],100%,100%,100%,0.88,0.88,0.87,0.89
